The record followed here is US20260070945A1, “MACROCYCLIC IMMUNOMODULATORS” (Bristol-Myers Squibb Company, priority 2022, published 2026).

In general, pIC50 refers to −log10 of the IC50, conventionally taken in molar units.

pIC50: −log10 of the molar value. Where a SMILES comes first, the peptide text is derived from it. Bridges are numbered along the chain shown (N, C = ends). [ ]: non-standard residue; d: D form. The star is where a group is joined. ξ: configuration not given here. Phe(4-COOH) = N[C@@H](Cc1ccc(C(=O)O)cc1)C(=O)O; Bip = N[C@@H](Cc1ccc(-c2ccccc2)cc1)C(=O)O; Phe(3-Me) = Cc1cccc(C[C@H](N)C(=O)O)c1; NMeR = CN[C@@H](CCCNC(=N)N)C(=O)O; NMeE = CN[C@@H](CCC(=O)O)C(=O)O; Cha = N[C@@H](CC1CCCCC1)C(=O)O; Cit = NC(=O)NCCC[C@H](N)C(=O)O; Ile(3ξ) = CCC(C)[C@H](N)C(=O)O; NMeN = CN[C@@H](CC(N)=O)C(=O)O; Thr(3ξ) = CC(O)[C@H](N)C(=O)O; Carboxymethyl = O=C(O)C*; NMeA = CN[C@@H](C)C(=O)O; Aun = NCCCCCCCCCCC(=O)O; Dab = NCC[C@H](N)C(=O)O; AEEA = NCCOCCOCC(=O)O; Sar = CNCC(=O)O

T1 sequence (Q15116 25-288): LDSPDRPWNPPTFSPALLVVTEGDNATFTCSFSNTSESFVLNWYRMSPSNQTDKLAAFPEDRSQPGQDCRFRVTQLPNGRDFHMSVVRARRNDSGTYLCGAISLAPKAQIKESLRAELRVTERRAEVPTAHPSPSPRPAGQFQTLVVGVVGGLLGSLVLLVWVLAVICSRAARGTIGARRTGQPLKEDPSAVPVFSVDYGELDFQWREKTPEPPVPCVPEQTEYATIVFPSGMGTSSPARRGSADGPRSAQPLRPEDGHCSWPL

This assay addresses T1, PD-1/PD-L1 interaction (PE-labeled human PD-L1-Ig binding to Jurkat cell line over-expressing human PD-1) (Homo sapiens, UniProt Q15116).
T1 construct: expressed in transfected cells; host or cells: Jurkat
The assay can be described thus: Jurkat-PD-1 Cell Binding High-Content Screening Assay (CBA). The following applies: Jurkat-hPD-1 cells, PE-labeled PD-L1-Ig 20 nM final; read-out: Jurkat HPD1 PDL1 IC50. Summed up: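 Read-out: high-content imaging of cell-bound PE fluorescence, with Hoechst 33342 nuclear counterstain after paraformaldehyde fixation. Before labeled ligand (20 nM final, 1 h) was added, compound sat on the cells for 2 h at 37 °C in DMEM/10% FCS.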
Turning to `Cc1cccc(C[C@@H]2NC(=O)[C@H](CC(=O)O)NC(=O)[C@H](Cc3ccc(C(=O)O)cc3)NC(=O)[C@H](Cc3ccc(OCC(=O)O)cc3)NC(=O)CSC[C@@H](C(=O)NCCOCCOCC(=O)NCCCCCCCCCCC(=O)O)NC(=O)[C@H](CCC(=O)O)NC(=O)[C@H](C(C)C)NC(=O)[C@H](CC3CCCCC3)NC(=O)[C@H](CCN)NC(=O)[C@@H](CC(C)C)NC(=O)[C@H](C)N(C)C(=O)[C@H](C(C)C)NC(=O)[C@H](Cc3ccc(-c4ccccc4)cc3)NC(=O)[C@H](CC(C)C)NC2=O)c1` [Example 2296] ({CH2CO}-Y(Carboxymethyl)[Phe(4-COOH)]D[Phe(3-Me)]L[Bip]V[NMeA][dL][Dab][Cha]VEC[AEEA][Aun]-OH; thioether N-14), the pIC50 is 7.46.
In the case of `CCC(C)[C@@H]1NC(=O)[C@H](Cc2ccc(-c3ccccc3)cc2)NC(=O)[C@H](C(C)C)NC(=O)[C@H](Cc2c[nH]c3ccccc23)NC(=O)[C@H](CC(=O)O)NC(=O)[C@H](Cc2ccc(OCC(=O)O)cc2)NC(=O)[C@H](Cc2ccc(OCC(=O)O)cc2)NC(=O)CSC[C@@H](C(=O)N[C@H](CC(N)=O)C(=O)NCCCCCCCCCCC(=O)O)NC(=O)[C@H](CCCNC(N)=O)NC(=O)[C@H](C(C)C)NC(=O)[C@H](CC2CCCCC2)NC(=O)[C@H](CCN)NC(=O)[C@@H](CC(C)C)NC(=O)[C@H](C)N(C)C1=O` (stereo partly drawn) [Example 2297] ({CH2CO}-Y(Carboxymethyl)Y(Carboxymethyl)DWV[Bip][Ile(3ξ)][NMeA][dL][Dab][Cha]V[Cit]C[dN][Aun]-OH; thioether N-14), the pIC50 is 8.07.
In the case of `CCC(C)[C@@H]1NC(=O)[C@H](Cc2ccc(-c3ccccc3)cc2)NC(=O)[C@H](C(C)C)NC(=O)[C@H](Cc2cccc(C)c2)NC(=O)[C@H](CC(=O)O)NC(=O)[C@H](Cc2ccc(OCC(=O)O)cc2)NC(=O)[C@H](CCCNC(=N)N)NC(=O)CSC[C@@H](C(=O)N[C@H](CC(N)=O)C(=O)NCCCCCCCCCCC(=O)O)NC(=O)[C@H](C(C)O)NC(=O)[C@H](C(C)C)NC(=O)[C@H](CC2CCCCC2)NC(=O)[C@H](CCN)NC(=O)[C@@H](CC(C)C)NC(=O)[C@H](C)N(C)C1=O` (stereo partly drawn) [Example 2298] ({CH2CO}-RY(Carboxymethyl)D[Phe(3-Me)]V[Bip][Ile(3ξ)][NMeA][dL][Dab][Cha]V[Thr(3ξ)]C[dN][Aun]-OH; thioether N-14), the negative logarithm of the IC50 (pIC50) is 7.61.
The same measure for `Cc1cccc(C[C@@H]2NC(=O)[C@H](CC(=O)O)NC(=O)[C@H](Cc3ccc(OCC(=O)O)cc3)NC(=O)[C@H](C(C)O)NC(=O)CSC[C@@H](C(=O)N(C)[C@@H](CCC(=O)O)C(=O)NCCCCCCCCCCC(=O)O)NC(=O)[C@H](CO)NC(=O)[C@H](C(C)C)NC(=O)[C@H](CC3CCCCC3)NC(=O)[C@H](CCN)NC(=O)[C@@H](CC(C)C)NC(=O)[C@H](C)N(C)C(=O)[C@H](C(C)C)NC(=O)[C@H](Cc3ccc(-c4ccccc4)cc3)NC(=O)[C@H](C(C)C)NC2=O)c1` (stereo partly drawn) [Example 2299] ({CH2CO}-[Thr(3ξ)]Y(Carboxymethyl)D[Phe(3-Me)]V[Bip]V[NMeA][dL][Dab][Cha]VSC[NMeE][Aun]-OH; thioether N-14): 6.89.
As for `CC(=O)NCCCC[C@@H]1NC(=O)[C@H](CC2CCCCC2)NC(=O)[C@H](CCN)NC(=O)[C@@H](CC(C)C)NC(=O)[C@H](C)N(C)C(=O)[C@H](C(C)C)NC(=O)[C@H](Cc2ccc(-c3ccccc3)cc2)NC(=O)[C@H](C(C)C)NC(=O)[C@H](Cc2cccc(C)c2)NC(=O)[C@H](CC(=O)O)NC(=O)[C@H](Cc2ccc(OCC(=O)O)cc2)NC(=O)[C@H](C(C)O)NC(=O)CSC[C@@H](C(=O)N[C@@H](CCN)C(=O)NCCCCCCCCCCC(=O)O)NC(=O)[C@H](CO)NC1=O` (stereo partly drawn) [Example 2300] ({CH2CO}-[Thr(3ξ)]Y(Carboxymethyl)D[Phe(3-Me)]V[Bip]V[NMeA][dL][Dab][Cha]K(Ac)SC[Dab][Aun]-OH; thioether N-14), the pIC50 is 7.81.
Take `Cc1cccc(C[C@@H]2NC(=O)[C@H](CC(=O)O)NC(=O)[C@H](Cc3ccc(OCC(=O)O)cc3)NC(=O)[C@H](C(C)O)NC(=O)CSC[C@@H](C(=O)N(C)[C@@H](CCCNC(=N)N)C(=O)NCCCCCCCCCCC(=O)O)NC(=O)[C@H](CO)NC(=O)[C@H](C(C)C)NC(=O)[C@H](CC3CCCCC3)NC(=O)[C@H](CCN)NC(=O)[C@@H](CC(C)C)NC(=O)[C@H](C)N(C)C(=O)[C@H](C(C)C)NC(=O)[C@H](Cc3ccc(-c4ccccc4)cc3)NC(=O)[C@H](C(C)C)NC2=O)c1` (stereo partly drawn) [Example 2301] ({CH2CO}-[Thr(3ξ)]Y(Carboxymethyl)D[Phe(3-Me)]V[Bip]V[NMeA][dL][Dab][Cha]VSC[NMeR][Aun]-OH; thioether N-14): the pIC50 is 6.82.
As to `Cc1cccc(C[C@@H]2NC(=O)[C@H](CC(=O)O)NC(=O)[C@H](Cc3ccc(OCC(=O)O)cc3)NC(=O)[C@H](C(C)O)NC(=O)CSC[C@@H](C(=O)N(C)[C@@H](CC(N)=O)C(=O)NCCCCCCCCCCC(=O)O)NC(=O)[C@H](CO)NC(=O)[C@H](C(C)C)NC(=O)[C@H](CC3CCCCC3)NC(=O)[C@H](CCN)NC(=O)[C@@H](CC(C)C)NC(=O)[C@H](C)N(C)C(=O)[C@H](C(C)C)NC(=O)[C@H](Cc3ccc(-c4ccccc4)cc3)NC(=O)[C@H](C(C)C)NC2=O)c1` (stereo partly drawn) [Example 2302] ({CH2CO}-[Thr(3ξ)]Y(Carboxymethyl)D[Phe(3-Me)]V[Bip]V[NMeA][dL][Dab][Cha]VSC[NMeN][Aun]-OH; thioether N-14), the pIC50 is 7.55.
As to `Cc1cccc(C[C@@H]2NC(=O)[C@H](CC(=O)O)NC(=O)[C@H](Cc3ccc(OCC(=O)O)cc3)NC(=O)[C@H](C(C)O)NC(=O)CSC[C@@H](C(=O)N[C@@H](CCN)C(=O)NCCCCCCCCCCC(=O)O)NC(=O)[C@H](C(C)O)NC(=O)[C@H](C(C)C)NC(=O)[C@H](CC3CCCCC3)NC(=O)[C@H](CCN)NC(=O)[C@@H](CC(C)C)NC(=O)[C@H](C)N(C)C(=O)[C@H](CCC(=O)O)NC(=O)[C@H](Cc3ccc(-c4ccccc4)cc3)NC(=O)[C@H](CCC(=O)O)NC2=O)c1` (stereo partly drawn) [Example 2303] ({CH2CO}-[Thr(3ξ)]Y(Carboxymethyl)D[Phe(3-Me)]E[Bip]E[NMeA][dL][Dab][Cha]V[Thr(3ξ)]C[Dab][Aun]-OH; thioether N-14), the pIC50 was 7.34.
As to `CC(=O)NCCCC[C@@H]1NC(=O)[C@H](C(C)C)NC(=O)[C@H](CC2CCCCC2)NC(=O)[C@H](CCN)NC(=O)[C@@H](CC(C)C)NC(=O)[C@H](C)N(C)C(=O)[C@H](C(C)C)NC(=O)[C@H](Cc2ccc(-c3ccccc3)cc2)NC(=O)[C@H](C(C)C)NC(=O)[C@H](Cc2cccc(C)c2)NC(=O)[C@H](CC(=O)O)NC(=O)[C@H](Cc2ccc(OCC(=O)O)cc2)NC(=O)[C@H](C(C)O)NC(=O)CSC[C@@H](C(=O)N(C)CC(=O)NCCOCCOCC(=O)NCCCCCCCCCCC(=O)O)NC1=O` (stereo partly drawn) [Example 2304] ({CH2CO}-[Thr(3ξ)]Y(Carboxymethyl)D[Phe(3-Me)]V[Bip]V[NMeA][dL][Dab][Cha]VK(Ac)C[Sar][AEEA][Aun]-OH; thioether N-14), the pIC50 is 7.50.
Turning to `Cc1cccc(C[C@@H]2NC(=O)[C@H](CC(=O)O)NC(=O)[C@H](Cc3ccc(OCC(=O)O)cc3)NC(=O)[C@H](C(C)O)NC(=O)CSC[C@@H](C(=O)N(C)[C@@H](CC(N)=O)C(=O)NCCOCCOCC(=O)NCCCCCCCCCCC(=O)O)NC(=O)[C@H](CCCNC(N)=O)NC(=O)[C@H](C(C)C)NC(=O)[C@H](CC3CCCCC3)NC(=O)[C@H](CCN)NC(=O)[C@@H](CC(C)C)NC(=O)[C@H](C)N(C)C(=O)[C@H](C(C)C)NC(=O)[C@H](Cc3ccc(-c4ccccc4)cc3)NC(=O)[C@H](C(C)C)NC2=O)c1` (stereo partly drawn) [Example 2305] ({CH2CO}-[Thr(3ξ)]Y(Carboxymethyl)D[Phe(3-Me)]V[Bip]V[NMeA][dL][Dab][Cha]V[Cit]C[NMeN][AEEA][Aun]-OH; thioether N-14), the pIC50 is 7.70.
Consider `Cc1cccc(C[C@@H]2NC(=O)[C@H](CC(=O)O)NC(=O)[C@H](Cc3ccc(OCC(=O)O)cc3)NC(=O)[C@H](CCCNC(=N)N)NC(=O)CSC[C@@H](C(=O)N[C@@H](CCN)C(=O)NCCCCCCCCCCC(=O)O)NC(=O)[C@H](C(C)O)NC(=O)[C@H](C(C)C)NC(=O)[C@H](CC3CCCCC3)NC(=O)[C@H](CCN)NC(=O)[C@@H](CC(C)C)NC(=O)[C@H](C)N(C)C(=O)[C@H](Cc3ccc(OCC(=O)O)cc3)NC(=O)[C@H](Cc3ccc(-c4ccccc4)cc3)NC(=O)[C@H](CCC(=O)O)NC2=O)c1` (stereo partly drawn) [Example 2306] ({CH2CO}-RY(Carboxymethyl)D[Phe(3-Me)]E[Bip]Y(Carboxymethyl)[NMeA][dL][Dab][Cha]V[Thr(3ξ)]C[Dab][Aun]-OH; thioether N-14), for which the pIC50 is 7.84.
For `Cc1cccc(C[C@@H]2NC(=O)[C@H](CC(=O)O)NC(=O)[C@H](Cc3ccc(OCC(=O)O)cc3)NC(=O)[C@H](CCCNC(=N)N)NC(=O)CSC[C@@H](C(=O)N[C@@H](CCN)C(=O)NCCCCCCCCCCC(=O)O)NC(=O)[C@H](C(C)O)NC(=O)[C@H](C(C)C)NC(=O)[C@H](CC3CCCCC3)NC(=O)[C@H](CCN)NC(=O)[C@@H](CC(C)C)NC(=O)[C@H](C)N(C)C(=O)[C@H](Cc3ccc(OCC(=O)O)cc3)NC(=O)[C@H](Cc3ccc(-c4ccccc4)cc3)NC(=O)[C@H](Cc3ccc(OCC(=O)O)cc3)NC2=O)c1` (stereo partly drawn) [Example 2307] ({CH2CO}-RY(Carboxymethyl)D[Phe(3-Me)]Y(Carboxymethyl)[Bip]Y(Carboxymethyl)[NMeA][dL][Dab][Cha]V[Thr(3ξ)]C[Dab][Aun]-OH; thioether N-14), the pIC50 is 7.86.
On to `Cc1cccc(C[C@@H]2NC(=O)[C@H](CC(=O)O)NC(=O)[C@H](Cc3ccc(OCC(=O)O)cc3)NC(=O)[C@H](CCCNC(=N)N)NC(=O)CSC[C@@H](C(=O)N[C@@H](CCN)C(=O)NCCCCCCCCCCC(=O)O)NC(=O)[C@H](C(C)O)NC(=O)[C@H](C(C)C)NC(=O)[C@H](CC3CCCCC3)NC(=O)[C@H](CCN)NC(=O)[C@@H](CC(C)C)NC(=O)[C@H](C)N(C)C(=O)[C@H](Cc3ccc(OCC(=O)O)cc3)NC(=O)[C@H](Cc3ccc(-c4ccccc4)cc3)NC(=O)[C@H](C(C)C)NC2=O)c1` (stereo partly drawn) [Example 2308] ({CH2CO}-RY(Carboxymethyl)D[Phe(3-Me)]V[Bip]Y(Carboxymethyl)[NMeA][dL][Dab][Cha]V[Thr(3ξ)]C[Dab][Aun]-OH; thioether N-14), for which the pIC50 was 7.68.
